Results reported in US11661426B2, “Imidazole-containing inhibitors of ALK2 kinase” (BioCryst Pharmaceuticals, Inc., priority 2017, dated 2023).

The compounds below were run against ALK2 (Homo sapiens (Human), UniProt Q04771) (assay: ALK2 inhibition, LanthaScreen Eu Kinase Binding Assay (ThermoFisher Scientific / Life Technologies)). Settings: read-out: Measured Ki (IC50) Value for Compounds: IC50.
Method: Biochemical assays to measure the inhibitory effects of the compounds were performed by ThermoFisher Scientific (Life Technologies). ALK2 inhibition was tested using LanthaScreen™ Eu Kinase Binding Assay screening protocol.

Chain of ALK2 (Q04771 21-509): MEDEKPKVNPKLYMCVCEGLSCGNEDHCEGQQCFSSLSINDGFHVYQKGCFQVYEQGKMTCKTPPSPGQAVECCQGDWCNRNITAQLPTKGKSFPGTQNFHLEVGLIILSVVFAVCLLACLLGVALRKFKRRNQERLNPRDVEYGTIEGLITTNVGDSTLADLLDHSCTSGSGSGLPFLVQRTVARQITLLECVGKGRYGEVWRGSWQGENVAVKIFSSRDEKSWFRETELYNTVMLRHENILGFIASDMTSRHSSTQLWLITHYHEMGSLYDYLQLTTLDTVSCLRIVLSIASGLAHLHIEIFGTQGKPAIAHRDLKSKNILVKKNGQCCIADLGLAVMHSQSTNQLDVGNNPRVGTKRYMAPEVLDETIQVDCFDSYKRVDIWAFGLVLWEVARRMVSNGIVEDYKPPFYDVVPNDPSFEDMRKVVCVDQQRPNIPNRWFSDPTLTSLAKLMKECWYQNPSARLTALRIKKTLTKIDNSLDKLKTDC

Row | Structure (SMILES) | IC50
1 | Cn1cnc(Nc2nc(Cl)nc3ccoc23)c1 [Compound 1b, 2-chloro-N-(1-methyl-1H-imidazol-4-yl)furo[3,2-d]pyrimidin-4-amine] | > 1000 nM
2 | Cn1cnc(Nc2nc(N3CCC[C@H]3CO)nc3ccoc23)c1 [Compound 2a, (S)-(1-(4-((1-methyl-1H-imidazol-4-yl)amino)furo[3,2-d]pyrimidin-2-yl)pyrrolidin-2-yl)methanol] | 100 to 1000 nM
3 | Cn1cnc(Nc2nc(N3CCC[C@@H]3CO)nc3ccoc23)c1 [Compound 3a, (R)-(1-(4-((1-methyl-1H-imidazol-4-yl)amino)furo[3,2-d]pyrimidin-2-yl)pyrrolidin-2-yl)methanol] | > 1000 nM
4 | Cn1cnc(Nc2nc(Cl)nn3cccc23)c1 [Compound 4b, 2-chloro-N-(1-methyl-1H-imidazol-4-yl)pyrrolo[2,1-f][1,2,4]triazin-4-amine] | > 1000 nM
5 | Cn1cnc(Nc2nc(N3CCCC3c3ccccn3)nn3cccc23)c1 (centres unmarked) [Compound 4c, N-(1-methyl-1H-imidazol-4-yl)-2-(2-(pyridin-2-yl)pyrrolidin-1-yl)pyrrolo[1,2-f][1,2,4]triazin-4-amine] | < 100 nM
6 | Cn1cnc(Nc2nc(N3CCCC3c3ccccn3)nc3ccoc23)c1 (centres unmarked) [Compound 5a, N-(1-methyl-1H-imidazol-4-yl)-2-(2-(pyridin-2-yl)pyrrolidin-1-yl)furo[3,2-d]pyrimidin-4-amine] | < 100 nM
7 | Cn1cnc(Nc2nc(N3CCC[C@H]3CO)nn3cccc23)c1 [Compound 6a, (S)-(1-(4-(1-methyl-1H-imidazol-4-ylamino)pyrrolo[1,2-f][1,2,4]triazin-2-yl)pyrrolidin-2-yl)methanol] | 100 to 1000 nM
8 | Cn1cnc(Nc2nc(N3CCC[C@@H]3CO)nn3cccc23)c1 [Compound 7a, (R)-(1-(4-(1-methyl-1H-imidazol-4-ylamino)pyrrolo[1,2-f][1,2,4]triazin-2-yl)pyrrolidin-2-yl)methanol] | > 1000 nM
9 | OC[C@@H]1CCCN1c1nc(Nc2cn(-c3ccccc3)cn2)c2cccn2n1 [Compound 8c, (S)-(1-(4-((1-phenyl-1H-imidazol-4-yl)amino)pyrrolo[2,1-f][1,2,4]triazin-2-yl)pyrrolidin-2-yl)methanol] | < 100 nM
10 | c1ccc(-n2cnc(Nc3nc(N4CCCC4c4ccccn4)nn4cccc34)c2)cc1 (centres unmarked) [Compound 9a, N-(1-phenyl-1H-imidazol-4-yl)-2-(2-(pyridin-2-yl)pyrrolidin-1-yl)pyrrolo[2,1-f][1,2,4]triazin-4-amine] | 100 to 1000 nM
11 | Cn1cnc(Nc2nc(N3CCCC3c3ccccc3)nn3cccc23)c1 (centres unmarked) [Compound 10a, N-(1-methyl-1H-imidazol-4-yl)-2-(2-phenylpyrrolidin-1-yl)pyrrolo[2,1-f][1,2,4]triazin-4-amine] | < 100 nM
12 | Cn1cnc(Nc2nc(N3CCCC3c3cccnc3)nc3ccoc23)c1 (centres unmarked) [Compound 11a, N-(1-methyl-1H-imidazol-4-yl)-2-(2-(pyridin-3-yl)pyrrolidin-1-yl)furo[3,2-d]pyrimidin-4-amine] | < 100 nM
13 | Cn1cnc(Nc2nc(N3CCCC3c3ccccn3)nc3ccsc23)c1 (centres unmarked) [Compound 12c, N-(1-methyl-1H-imidazol-4-yl)-2-(2-(pyridin-2-yl)pyrrolidin-1-yl)thieno[3,2-d]pyrimidin-4-amine] | < 100 nM
14 | Cn1cnc(Nc2nc(N3CCCC3c3ccccc3)nc3ccoc23)c1 (centres unmarked) [Compound 13a, N-(1-methyl-1H-imidazol-4-yl)-2-(2-phenylpyrrolidin-1-yl)furo[3,2-d]pyrimidin-4-amine] | < 100 nM
15 | OC[C@@H]1CCCN1c1nc(Nc2cn(-c3ccccc3)cn2)c2occc2n1 [Compound 14b, (S)-(1-(4-((1-phenyl-1H-imidazol-4-yl)amino)furo[3,2-d]pyrimidin-2-yl)pyrrolidin-2-yl)methanol] | < 100 nM
16 | Cn1cnc(Nc2nc(N3CCC[C@H]3c3ccccc3)nn3cccc23)c1 [Compound 15a, (S)—N-(1-methyl-1H-imidazol-4-yl)-2-(2-phenylpyrrolidin-1-yl)pyrrolo[2,1-f][1,2,4]triazin-4-amine] | < 100 nM
17 | OC[C@@H]1CCCN1c1nc(Nc2cn(-c3ccccc3)cn2)c2sccc2n1 [Compound 16b, (S)-(1-(4-((1-phenyl-1H-imidazol-4-yl)amino)thieno[3,2-d]pyrimidin-2-yl)pyrrolidin-2-yl)methanol] | < 100 nM
18 | C[C@H](Nc1nc(Nc2cn(-c3ccccc3)cn2)c2sccc2n1)c1ccccc1 [Compound 17a, (S)—N4-(1-phenyl-1H-imidazol-4-yl)-N2-(1-phenylethyl)thieno[3,2-d]pyrimidine-2,4-diamine] | 100 to 1000 nM
19 | Cn1cnc(Nc2nc(N3CCC[C@H]3c3ccccn3)nn3cccc23)c1 [Compound 18a, (S)—N-(1-methyl-1H-imidazol-4-yl)-2-(2-(pyridin-2-yl)pyrrolidin-1-yl)pyrrolo[2,1-f][1,2,4]triazin-4-amine] | < 100 nM

Row | Structure (SMILES) | IC50
20 | Cn1cnc(Nc2nc(N3CCCC3c3cccnc3)nn3cccc23)c1 (centres unmarked) [Compound 19a, N-(1-methyl-1H-imidazol-4-yl)-2-(2-(pyridin-3-yl)pyrrolidin-1-yl)pyrrolo[2,1-f][1,2,4]triazin-4-amine] | < 100 nM
21 | Cn1cnc(Nc2nc(N3CCCC3c3ccncc3)nn3cccc23)c1 (centres unmarked) [Compound 20a, N-(1-methyl-1H-imidazol-4-yl)-2-(2-(pyridin-4-yl)pyrrolidin-1-yl)pyrrolo[2,1-f][1,2,4]triazin-4-amine] | 100 to 1000 nM
22 | C[C@H](Nc1nc(Nc2cn(C)cn2)c2ccccc2n1)c1ccccc1 [Compound 21c, (S)—N4-(1-methyl-1H-imidazol-4-yl)-N2-(1-phenylethyl)quinazoline-2,4-diamine] | < 100 nM
23 | Cc1cc2c(Nc3cn(-c4ccccc4)cn3)nc(N3CCC[C@H]3CO)nc2s1 [Compound 22c, (S)-(1-(6-methyl-4-((1-phenyl-1H-imidazol-4-yl)amino)thieno[2,3-d]pyrimidin-2-yl)pyrrolidin-2-yl)methanol] | < 100 nM
24 | Cc1cc2nc(N3CCC[C@H]3CO)nc(Nc3cn(-c4ccccc4)cn3)c2s1 [Compound 23c, (S)-(1-(6-methyl-4-((1-phenyl-1H-imidazol-4-yl)amino)thieno[3,2-d]pyrimidin-2-yl)pyrrolidin-2-yl)methanol] | < 100 nM
25 | C[C@H](Nc1nc(Nc2cn(-c3ccccc3)cn2)c2ccccc2n1)c1ccccc1 [Compound 24b, (S)—N4-(1-phenyl-1H-imidazol-4-yl)-N2-(1-phenylethyl)quinazoline-2,4-diamine] | 100 to 1000 nM
26 | OC[C@@H]1CCCN1c1nc(Nc2cn(-c3ccc(F)cc3)cn2)c2cccn2n1 [Compound 25c, (S)-(1-(4-((1-(4-fluorophenyl)-1H-imidazol-4-yl)amino)pyrrolo[2,1-f][1,2,4]triazin-2-yl)pyrrolidin-2-yl)methanol] | < 100 nM
27 | OC[C@@H]1CCCN1c1nc(Nc2cn(C3CC3)cn2)c2cccn2n1 [Compound 26c, (S)-(1-(4-((1-cyclopropyl-1H-imidazol-4-yl)amino)pyrrolo[2,1-f][1,2,4]triazin-2-yl)pyrrolidin-2-yl)methanol] | 100 to 1000 nM
28 | c1ccc(C2CCCN2c2nc(Nc3cn(C4CC4)cn3)c3cccn3n2)nc1 (centres unmarked) [Compound 27a, N-(1-cyclopropyl-1H-imidazol-4-yl)-2-(2-(pyridin-2-yl)pyrrolidin-1-yl)pyrrolo[2,1-f][1,2,4]triazin-4-amine] | 100 to 1000 nM
29 | OC[C@@H]1CCCN1c1nc(Nc2cn(C3CCCCC3)cn2)c2cccn2n1 [Compound 28c, (S)-(1-(4-((1-cyclohexyl-1H-imidazol-4-yl)amino)pyrrolo[2,1-f][1,2,4]triazin-2-yl)pyrrolidin-2-yl)methanol] | 100 to 1000 nM
30 | c1ccc(C2CCCN2c2nc(Nc3cn(C4CCCCC4)cn3)c3cccn3n2)nc1 (centres unmarked) [Compound 29a, N-(1-cyclohexyl-1H-imidazol-4-yl)-2-(2-(pyridin-2-yl)pyrrolidin-1-yl)pyrrolo[2,1-f][1,2,4]triazin-4-amine] | 100 to 1000 nM
31 | c1ccc(C2CCCN2c2nc(Nc3cn(C4CC4)cn3)c3cccn3n2)cc1 (centres unmarked) [Compound 30a, N-(1-cyclopropyl-1H-imidazol-4-yl)-2-(2-phenylpyrrolidin-1-yl)pyrrolo[2,1-f][1,2,4]triazin-4-amine] | 100 to 1000 nM
32 | OC[C@@H]1CCCN1c1nc(Nc2cn(-c3ccccc3)cn2)c2ccsc2n1 [Compound 31c, (S)-(1-(4-((1-phenyl-1H-imidazol-4-yl)amino)thieno[2,3-d]pyrimidin-2-yl)pyrrolidin-2-yl)methanol] | < 100 nM
33 | OC[C@@H]1CCCN1c1nc(Nc2cn(-c3ccccc3)cn2)c2ccccc2n1 [Compound 32a, (S)-(1-(4-((1-phenyl-1H-imidazol-4-yl)amino)quinazolin-2-yl)pyrrolidin-2-yl)methanol] | < 100 nM
34 | c1ccc(-n2cnc(Nc3nc(N4CCCC4c4ccccn4)nc4ccoc34)c2)cc1 (centres unmarked) [Compound 33a, N-(1-phenyl-1H-imidazol-4-yl)-2-(2-(pyridin-2-yl)pyrrolidin-1-yl)furo[3,2-d]pyrimidin-4-amine] | < 100 nM
35 | CN1CCN(c2nc(Nc3cn(C)cn3)c3cccn3n2)CC1 [Compound 34a, N-(1-methyl-1H-imidazol-4-yl)-2-(4-methylpiperazin-1-yl)pyrrolo[2,1-f][1,2,4]triazin-4-amine] | > 1000 nM
36 | CN1CCN(c2nc(Nc3cn(-c4ccccc4)cn3)c3cccn3n2)CC1 [Compound 35a, 2-(4-methylpiperazin-1-yl)-N-(1-phenyl-1H-imidazol-4-yl)pyrrolo[2,1-f][1,2,4]triazin-4-amine] | 100 to 1000 nM
37 | OC[C@@H]1CCCN1c1nc(Nc2cn(-c3ccccc3F)cn2)c2cccn2n1 [Compound 36c, (S)-(1-(4-((1-(2-fluorophenyl)-1H-imidazol-4-yl)amino)pyrrolo[2,1-f][1,2,4]triazin-2-yl)pyrrolidin-2-yl)methanol] | < 100 nM
38 | c1ccc(C2CCCN2c2nc(Nc3cn(C4CCC4)cn3)c3cccn3n2)nc1 (centres unmarked) [Compound 37c, N-(1-cyclobutyl-1H-imidazol-4-yl)-2-(2-(pyridin-2-yl)pyrrolidin-1-yl)pyrrolo[2,1-f][1,2,4]triazin-4-amine] | < 100 nM
